test system: Human osteosarcoma U2OS cells; experiment: Assay to measure lysosome and autolysosome (acidic vesicle) formation in U2OS cells; assay type: cell-based; settings: Homo sapiens, concentration of 0.8 μM, read-out: Activity (percentage increase in acidic vesicle formation over the DMSO-treated control)
Protocol: Lysosomes play a fundamental role in the autophagic pathway by fusing with autophagosomes and creating ‘autolysosomes’ in order to digest their contents. Stimulation of lysosome and autolysosome formation by a compound is indicative of a stimulation of autophagy. The ability of compounds to stimulate lysosome and autolysosome formation, and thus autophagy, in live cells was assessed via fluorescent microscopy using various fluorescent stains for labelling and tracking acidic organelles (including lysosomes and autolysosomes) such as: LysoView™ 650 (70059 and 70059-T, Biotium), Lyso View™633 (70058 and 70058-T, Biotium) and LysoTracker™ Deep Red (L12492, ThermoFisher Scientific). The cellular phenotype was quantitatively assessed for the induction of acidic vesicle formation and compared to a non-treated control, thus providing a measure of the ability of the compound under investigation to stimulate autophagy.
Representative procedure using LysoView™ 633 dye or LysoTracker™ Deep Red dye: Human osteosarcoma U2OS cells (40,000 cells/well) were seeded in a 24 well glass bottom plate (Sensoplate, Greiner Bio-One) and were incubated overnight in a humidified atmosphere at 37° C. and 5% CO2. Cells were grown in DMEM (Gibco) supplemented with 10% Fetal Bovine Serum (FBS) and 100 units/ml penicillin and 100 μg/ml streptomycin (Invitrogen). After the attachment period, cells were treated with different compounds of interest (at various concentrations in DMSO) or DMSO (non-treated control) in cell culture medium and were incubated for 24 hours. Compound-containing medium was removed and cells were incubated with pre-warmed cell culture medium containing 1× Lyso View™ 633 (70058 and 70058-T, Biotium) or 50 nM LysoTracker™ Deep Red (L12492, ThermoFisher Scientific) for 45 minutes at 37° C. Finally, cell nuclei were stained for 10 minutes using Hoechst 33342 (1 μg/mL) and then the medium was replaced with fresh medium. The 24 well plate was then fitted into a heated stage on the microscope and cells maintained at 37° C. Images were captured using appropriate filter set for Cy5 and DAPI detection with the EVOS M7000 Microscope (ThermoFisher Scientific). The cellular phenotype was visually assessed for the induction of acidic vesicle formation relative to the non-treated control; multiple images were acquired and analysed using ImageJ or Cell Profiler.

Compared with CN(CCN(C)C1CCCCC1)C(=O)c1csc(-c2cnn(-c3ccccc3)c2)n1 [Compound 190, N-{2-[cyclohexyl(methyl)amino]ethyl}-N-methyl-2-(1-phenyl-1H-pyrazol-4-yl)-1,3-thiazole-4-carboxamide], CCN1CCC(N(CC)C(=O)c2csc(-c3cnn(-c4ccccc4)c3)n2)CC1 [Compound 219, N-ethyl-N-(1-ethylpiperidin-4-yl)-2-(1-phenyl-1H-pyrazol-4-yl)-1,3-thiazole-4-carboxamide] is higher in activation at 0.8 µM: 10 to 30% for the first, over 100% for the second.

CC(=O)N1CCN(C(=O)c2csc(-c3cnn(-c4ccccc4)c3)n2)CC1 [Compound 198, 1-{4-[2-(1-phenyl-1H-pyrazol-4-yl)-1,3-thiazole-4-carbonyl]piperazin-1-yl}ethan-1-one] and CCN1CCN(C(=O)c2csc(-c3cnn(-c4ccccc4)c3)n2)CC1 [Compound 236, 1-ethyl-4-[2-(1-phenyl-1H-pyrazol-4-yl)-1,3-thiazole-4-carbonyl]piperazine] fall in the same range of activation at 0.8 µM: 10 to 30% for the first, 10 to 30% for the second.

First: O=C(NCCN1CCCCC1)c1csc(-c2cnn(-c3ccccc3)c2)n1 [Compound 202, 2-(1-phenyl-1H-pyrazol-4-yl)-N-[2-(piperidin-1-yl)ethyl]-1,3-thiazole-4-carboxamide]
Second: O=C(NCCN1CCOCC1)c1csc(-c2cnn(-c3ccccc3)c2)n1 [Compound 204, N-[2-(morpholin-4-yl)ethyl]-2-(1-phenyl-1H-pyrazol-4-yl)-1,3-thiazole-4-carboxamide]
The activation at 0.8 µM of the first is higher: 30 to 50% for the first, 10 to 30% for the second.

CN1CCC[C@H](NC(=O)c2csc(-c3cnn(-c4ccccc4)c3)n2)C1 [Compound 208, N-[(3S)-1-methylpiperidin-3-yl]-2-(1-phenyl-1H-pyrazol-4-yl)-1,3-thiazole-4-carboxamide] and CCN1C[C@H]2C[C@@H]1CC2NC(=O)c1csc(-c2cnn(-c3ccccc3)c2)n1 (stereo partly drawn) [Compound 244, N-[(1R,4R)-2-ethyl-2-azabicyclo[2.2.1]heptan-5-yl]-2-(1-phenyl-1H-pyrazol-4-yl)-1,3-thiazole-4-carboxamide] fall in the same range of activation at 0.8 µM: 10 to 30% for the first, 10 to 30% for the second.

CCN1CCC(NC(=O)c2csc(-c3cnn(-c4ccc(F)cc4)c3)n2)CC1 [Compound 213, N-(1-ethylpiperidin-4-yl)-2-[1-(4-fluorophenyl)-1H-pyrazol-4-yl]-1,3-thiazole-4-carboxamide] and CCN1CCC(NC(=O)c2csc(-c3cnn(-c4ccncc4)c3)n2)CC1 [Compound 228, N-(1-ethylpiperidin-4-yl)-2-[1-(pyridin-4-yl)-1H-pyrazol-4-yl]-1,3-thiazole-4-carboxamide] fall in the same range of activation at 0.8 µM: 10 to 30% for the first, 10 to 30% for the second.

CCN1CCC(NC(=O)c2ccc(-c3cnn(-c4ccccc4)c3)[nH]2)CC1 [Compound 214, N-(1-ethylpiperidin-4-yl)-5-(1-phenyl-1H-pyrazol-4-yl)-1H-pyrrole-2-carboxamide] and CCN1CCC(NC(=O)c2csc(-c3cnn(-c4cccnc4)c3)n2)CC1 [Compound 225, N-(1-ethylpiperidin-4-yl)-2-[1-(pyridin-3-yl)-1H-pyrazol-4-yl]-1,3-thiazole-4-carboxamide] fall in the same range of activation at 0.8 µM: 10 to 30% for the first, 10 to 30% for the second.

NS(=O)(=O)N1CCN(C(=O)c2ccc(-c3cnn(-c4ccccc4C(F)(F)F)c3)[nH]2)CC1 [Compound 216, 4-(5-{1-[2-(trifluoromethyl)phenyl]-1H-pyrazol-4-yl}-1H-pyrrole-2-carbonyl)piperazine-1-sulfonamide] and CCN1CCC(N(C)C(=O)c2csc(-c3cnn(-c4ccccc4C(F)(F)F)c3)n2)CC1 [Compound 217, N-(1-ethylpiperidin-4-yl)-N-methyl-2-{1-[2-(trifluoromethyl)phenyl]-1H-pyrazol-4-yl}-1,3-thiazole-4-carboxamide] fall in the same range of activation at 0.8 µM: 10 to 30% for the first, 10 to 30% for the second.

First: CCN1CCC(N(C)C(=O)c2csc(-c3cnn(-c4ccccn4)c3)n2)CC1 [Compound 221, N-(1-ethylpiperidin-4-yl)-N-methyl-2-[1-(pyridin-2-yl)-1H-pyrazol-4-yl]-1,3-thiazole-4-carboxamide]
Second: CCN1CCC(N(C)C(=O)c2csc(-c3cnn(-c4cnccn4)c3)n2)CC1 [Compound 233, N-(1-ethylpiperidin-4-yl)-N-methyl-2-[1-(pyrazin-2-yl)-1H-pyrazol-4-yl]-1,3-thiazole-4-carboxamide]
The activation at 0.8 µM of the first is lower: 10 to 30% for the first, 50 to 100% for the second.

First: C[C@H]1CN(C(=O)c2csc(-c3cnn(-c4cccnc4)c3)n2)CCN1 [Compound 223, (3S)-3-methyl-1-{2-[1-(pyridin-3-yl)-1H-pyrazol-4-yl]-1,3-thiazole-4-carbonyl}piperazine]
Second: C[C@H]1CN(C(=O)c2csc(-c3cnn(-c4cccnn4)c3)n2)CCN1 [Compound 229, 3-(4-{4-[(3S)-3-methylpiperazine-1-carbonyl]-1,3-thiazol-2-yl}-1H-pyrazol-1-yl)pyridazine]
The activation at 0.8 µM of the first is lower: 10 to 30% for the first, 30 to 50% for the second.

First: CCN1CCC(N(C)C(=O)c2csc(-c3cnn(-c4cccnc4)c3)n2)CC1 [Compound 224, N-(1-ethylpiperidin-4-yl)-N-methyl-2-[1-(pyridin-3-yl)-1H-pyrazol-4-yl]-1,3-thiazole-4-carboxamide]
Second: CCN1CCC(N(C)C(=O)c2csc(-c3cnn(-c4ncccn4)c3)n2)CC1 [Compound 250, N-(1-ethylpiperidin-4-yl)-N-methyl-2-[1-(pyrimidin-2-yl)-1H-pyrazol-4-yl]-1,3-thiazole-4-carboxamide]
The activation at 0.8 µM of the first is higher: 50 to 100% for the first, 10 to 30% for the second.

First: CCN1CCC(NC(=O)c2csc(-c3cnn(-c4cccnn4)c3)n2)CC1 [Compound 231, N-(1-ethylpiperidin-4-yl)-2-[1-(pyridazin-3-yl)-1H-pyrazol-4-yl]-1,3-thiazole-4-carboxamide]
Second: CCN1CCC(NC(=O)c2csc(-c3cnn(-c4cnccn4)c3)n2)CC1 [Compound 234, N-(1-ethylpiperidin-4-yl)-2-[1-(pyrazin-2-yl)-1H-pyrazol-4-yl]-1,3-thiazole-4-carboxamide]
The activation at 0.8 µM of the first is lower: 10 to 30% for the first, 30 to 50% for the second.

First: C[C@H]1CN(C(=O)c2csc(-c3cnn(-c4cnccn4)c3)n2)CCN1 [Compound 232, 2-(4-{4-[(3S)-3-methylpiperazine-1-carbonyl]-1,3-thiazol-2-yl}-1H-pyrazol-1-yl)pyrazine]
Second: C[C@H]1CN(C(=O)c2csc(-c3cnn(-c4ncccn4)c3)n2)CCN1 [Compound 249, 2-(4-{4-[(3S)-3-methylpiperazine-1-carbonyl]-1,3-thiazol-2-yl}-1H-pyrazol-1-yl)pyrimidine]
The activation at 0.8 µM of the first is higher: 50 to 100% for the first, 10 to 30% for the second.

First: CC1(C)CN(C(=O)c2csc(-c3cnn(-c4ccccc4)c3)n2)CCN1 [Compound 235, 3,3-dimethyl-1-[2-(1-phenyl-1H-pyrazol-4-yl)-1,3-thiazole-4-carbonyl]piperazine]
Second: CN(C(=O)c1csc(-c2cnn(-c3ccccc3)c2)n1)C1CCN(C(C)(C)C)CC1 [Compound 239, N-(1-tert-butylpiperidin-4-yl)-N-methyl-2-(1-phenyl-1H-pyrazol-4-yl)-1,3-thiazole-4-carboxamide]
The activation at 0.8 µM of the first is higher: 30 to 50% for the first, 10 to 30% for the second.

CCN1C[C@@H]2C[C@H]1CC2N(C)C(=O)c1csc(-c2cnn(-c3ccccc3)c2)n1 (stereo partly drawn) [Compound 245, N-[(1S,4S)-2-ethyl-2-azabicyclo[2.2.1]heptan-5-yl]-N-methyl-2-(1-phenyl-1H-pyrazol-4-yl)-1,3-thiazole-4-carboxamide] and CCN1C[C@@H]2C[C@H]1CC2NC(=O)c1csc(-c2cnn(-c3ccccc3)c2)n1 (stereo partly drawn) [Compound 246, N-[(1S,4S)-2-ethyl-2-azabicyclo[2.2.1]heptan-5-yl]-2-(1-phenyl-1H-pyrazol-4-yl)-1,3-thiazole-4-carboxamide] fall in the same range of activation at 0.8 µM: 10 to 30% for the first, 10 to 30% for the second.

same assay, conditions: concentration of 10 μM, 24 hours

For C[C@H]1CN(C(=O)c2csc(-c3cnn(-c4cccnc4)c3)n2)CCN1 [Compound 223, (3S)-3-methyl-1-{2-[1-(pyridin-3-yl)-1H-pyrazol-4-yl]-1,3-thiazole-4-carbonyl}piperazine], the “acidic vesicle formation relative to a DMSO-treated control” value was “only a slight increase”.
With C[C@H]1CN(C(=O)c2csc(-c3cnn(-c4ccncc4)c3)n2)CCN1 [Compound 226, (3S)-3-methyl-1-{2-[1-(pyridin-4-yl)-1H-pyrazol-4-yl]-1,3-thiazole-4-carbonyl}piperazine] the “acidic vesicle formation relative to a DMSO-treated control” value was “only a slight increase”.
CCN1CCC(N(C)C(=O)c2csc(-c3cnn(-c4ccncc4)c3)n2)CC1 [Compound 227, N-(1-ethylpiperidin-4-yl)-N-methyl-2-[1-(pyridin-4-yl)-1H-pyrazol-4-yl]-1,3-thiazole-4-carboxamide] was tested, and the “acidic vesicle formation relative to a DMSO-treated control” value was “only a slight increase”.
For C[C@H]1CN(C(=O)c2csc(-c3cnn(-c4cnccn4)c3)n2)CCN1 [Compound 232, 2-(4-{4-[(3S)-3-methylpiperazine-1-carbonyl]-1,3-thiazol-2-yl}-1H-pyrazol-1-yl)pyrazine], the “acidic vesicle formation relative to a DMSO-treated control” value was “only a slight increase”.
In the case of C[C@H]1CC(N(C)C(=O)c2csc(-c3cnn(-c4ccccc4)c3)n2)CCN1 (stereo partly drawn) [Compound 241, N-methyl-N-[(2S)-2-methylpiperidin-4-yl]-2-(1-phenyl-1H-pyrazol-4-yl)-1,3-thiazole-4-carboxamide], the “acidic vesicle formation relative to a DMSO-treated control” value is reported as “only a slight increase”.

From patent publication US20250034127A1, “AUTOPHAGY INDUCING COMPOUNDS AND USES THEREOF, IN PARTICULAR FOR DISEASES OF THE CNS” (Samsara Therapeutics Inc., priority 2021, published 2025)
